Assay results as given in PubChem BioAssay AID1195 (EPA DSSTox, 2008).

Tested on: human maximum recommended daily dose, FDA database
Experiment: DSSTox (FDAMDD) FDA Maximum (Recommended) Daily Dose Database
Conditions: active compounds read low
From the text: The Food and Drug Administration (FDA) Center for Drug Evaluation and Research, Office of Pharmaceutical Science, Informatics and Computational Safety Analysis Staff's Maximum Recommended Daily Dose (FDAMDD) database contains values for over 1200 pharmaceuticals listed in Martindale: The Extra Pharmacopoeia (1973, 1983, and 1993) and The Physicians' Desk Reference (1995 and 1999). Some classes of chemicals were excluded from the FDAMDD database due to their unsuitability for most QSAR modeling programs. These were inorganic chemicals, high molecular weight polymers (>5000 Daltons), fibers, salts, mixtures of organic chemicals, and small molecules (<100 Daltons). FDAMDD is the non-proprietary portion of the database that was used in the QSAR analysis reported in the Main Citation. DSSTox FDAMDD has fewer substance records than the original MRDD Source database due to consolidation of partial structures (i.e., complexed entities) into a single record and elimination of duplicate entries. DSSTox FDAMDD also differs from the MRDD Source database in presenting complete structural information pertaining to the actual salt or complexed form corresponding to the listed ChemicalName and CASRN. According to the Source authors, there are a number of cases where multiple related forms or derivatives of a drug were listed as separate records but were assumed to fall under the same clinical toxicity assessment and, therefore, assigned the same Dose_MRDD_mg activity value. For the DSSTox FDAMDD, we have labeled these derivatives in the ChemClass_MRDD_grouping field and provide their counts in the ChemicalReplicateCount field to highlight their special nature.
Maximum recommended daily dose (or maximum recommended therapeutic dose) values were determined from pharmaceutical clinical trials that employed an oral route of exposure and daily treatments, usually for 3-12 months. Drugs were given as single or divided dose treatment regimens to achieve desired pharmacological effects. Roughly 5% of the pharmaceuticals in the FDAMDD data file were antineoplastics and anesthetics and were administered intravenously and/or intramuscularly. When separate MRDDs were reported for different routes of exposure, only the oral MRDD was included in the data file and only MRDD values reported for the average adult patient were used. Pharmaceuticals that are administered orally are usually tested over a limited range of doses and have MRDDs reported as mg/day. The mg/day unit was converted to mg/kg-body weight (bw)/day based upon an average adult weighing 60 kg. In contrast, the dose unit for most antineoplastic drug MRDDs is reported as mg/m2 which was converted to mg/kg-bw/day using the formula mg/kg-bw/day = mg/m2/37 for an average adult. Additionally, a few drugs had MRDDs reported in parts per million (ppm) which were converted to mg/kg-bw/day on the basis that 1000 ppm equals 25 mg/kg-bw/day for an average 60 kg adult. Activity Score is mapping of LOG10(1/Dose_MRDD_mmol) spanning activity range [MIN, MAX] onto Integer 1-100 Activity range, where 100 is highest potency and 1 is lowest potency: ActivityScore = 100 * INTEGER[(LOGINV_MRDD_mmol - MIN)/(MAX […] MIN)]. Activity Outcome is "active" for all substances, since Dose_MRDD_mmol is reported for all substances.

[1] = TherapeuticCategory: anxiolytic
[2] = TherapeuticCategory: antibacterial

Compound: CCN(CC)CCC1(c2ccccc2)CCC(=O)NC1=O (stereo unspecified)
- maximum recommended daily dose (mmol/kg-bw/day) (TherapeuticCategory: anticholinergic, antiparkinsonian): 0.00289

Compound: Cc1nnc2n1-c1ccc(Cl)cc1C(c1ccccc1)=NC2
- maximum recommended daily dose (mmol/kg-bw/day) [1]: 0.000541

Compound: O=C1OC(c2ccc(O)cc2)(c2ccc(O)cc2)c2ccccc21
- maximum recommended daily dose (mmol/kg-bw/day) (TherapeuticCategory: cathartic): 0.00682

Compound: Cc1c(-c2ccccc2)oc2c(C(=O)OCCN3CCCCC3)cccc2c1=O
- maximum recommended daily dose (mmol/kg-bw/day) (TherapeuticCategory: antispasmodic): 0.034

Compound: Cc1cc2c(OCC(CNC(C)(C)C)OC(=O)c3ccccc3)cccc2[nH]1 (stereo unspecified)
- maximum recommended daily dose (mmol/kg-bw/day) (TherapeuticCategory: antihypertensive): 4.39e-05

Compound: CC[N+]1(C)CCCC(OC(=O)C(O)(c2ccccc2)c2ccccc2)C1 (stereo unspecified)
- maximum recommended daily dose (mmol/kg-bw/day) (TherapeuticCategory: anticholinergic): 0.000576

Compound: O=c1[nH]cnc2c1ncn2[C@H]1CC[C@@H](CO)O1
- maximum recommended daily dose (mmol/kg-bw/day) (TherapeuticCategory: antiviral): 0.0282

Compound: Nc1ccn([C@H]2CS[C@@H](CO)O2)c(=O)n1
- maximum recommended daily dose (mmol/kg-bw/day) (TherapeuticCategory: antiviral): 0.0218

Compound: CC(C)(C)NCC(O)CSc1nc(-c2ccc(C(N)=O)s2)cs1 (stereo unspecified)
- maximum recommended daily dose (mmol/kg-bw/day) (TherapeuticCategory: antihypertensive, antianginal, antiarrhythmic): 0.000896

Compound: CCO[C@@H]1O[C@H](C(COCc2ccccc2)OCc2ccccc2)[C@H](OCc2ccccc2)[C@H]1O (stereo partly specified)
- maximum recommended daily dose (mmol/kg-bw/day) (TherapeuticCategory: sclerosing agent): 0.0278

Compound: CNC(C)CC1CCCCC1 (stereo unspecified)
- maximum recommended daily dose (mmol/kg-bw/day) (TherapeuticCategory: andrenergic, nasal decongestant): 0.0161

Compound: CN1CC[C@]23c4c5ccc(O)c4O[C@H]2[C@@H](O)C=C[C@H]3[C@H]1C5
- maximum recommended daily dose (mmol/kg-bw/day) (TherapeuticCategory: narcotic analgesic): 0.00585

Compound: O[C@@H]([C@H](O)[C@@H](O)CBr)[C@@H](O)CBr
- maximum recommended daily dose (mmol/kg-bw/day) (TherapeuticCategory: antineoplastic): 0.0135

Compound: CC1(C)S[C@@H]2[C@H](N=CN3CCCCCC3)C(=O)N2[C@H]1C(=O)O
- maximum recommended daily dose (mmol/kg-bw/day) [2]: 0.0461

Compound: CC1=C(/C=C/C(C)=C/C=C/C(C)=C\C(=O)O)C(C)(C)CCC1
- maximum recommended daily dose (mmol/kg-bw/day) (TherapeuticCategory: keratolytic): 0.00666

Compound: O=C(O)c1cn(C2CC2)c2cc(N3CCNCC3)c(F)cc2c1=O
- maximum recommended daily dose (mmol/kg-bw/day) [2]: 0.0401

Compound: CO/N=C(/C(=O)N[C@@H]1C(=O)N2C(C(=O)OC(C)OC(C)=O)=C(COC(N)=O)CS[C@H]12)c1ccco1 (stereo partly specified)
- maximum recommended daily dose (mmol/kg-bw/day) [2]: 0.0327

Compound: CCC1C(C)=NN=C(c2ccc(OC)c(OC)c2)c2cc(OC)c(OC)cc21 (stereo unspecified)
- maximum recommended daily dose (mmol/kg-bw/day) [1]: 0.00654

Compound: C#C[C@]1(OC(C)=O)CC[C@H]2[C@@H]3CCC4=CC(=O)CC[C@@H]4[C@H]3CC[C@@]21C
- maximum recommended daily dose (mmol/kg-bw/day) (TherapeuticCategory: progestogen): 4.91e-05

Compound: CN(C)C(=O)Oc1cccc([N+](C)(C)C)c1
- maximum recommended daily dose (mmol/kg-bw/day) (TherapeuticCategory: cholinergic): 0.028

Compound: COc1cc(NS(=O)(=O)c2ccc(N)cc2)nc(OC)n1
- maximum recommended daily dose (mmol/kg-bw/day) [2]: 0.107

Compound: N[C@@H](C(=O)N[C@@H]1C(=O)N2C(C(=O)O)=C(Cl)CC[C@H]12)c1ccccc1
- maximum recommended daily dose (mmol/kg-bw/day) [2]: 0.0181

Compound: CCS(=O)(=O)CCn1c([N+](=O)[O-])cnc1C
- maximum recommended daily dose (mmol/kg-bw/day) (TherapeuticCategory: antiprotozoal, antiamebic): 0.135

Compound: C[C@H](N)[C@H](O)c1cccc(O)c1
- maximum recommended daily dose (mmol/kg-bw/day) (TherapeuticCategory: adrenergic): 0.0498

Compound: Nc1[nH]c(=O)ncc1F
- maximum recommended daily dose (mmol/kg-bw/day) (TherapeuticCategory: antifungal): 1.16

Compound: CNC(C)[C@@H]1CC[C@@H](N)[C@@H](O[C@H]2[C@H](O)[C@@H](O[C@H]3OC[C@](C)(O)[C@H](NC)[C@H]3O)[C@H](N)C[C@@H]2N)O1 (stereo partly specified)
- maximum recommended daily dose (mmol/kg-bw/day) [2]: 0.00628

Compound: CNCCc1ccccn1
- maximum recommended daily dose (mmol/kg-bw/day) (TherapeuticCategory: vasodilator): 0.00587

Compound: CCN(CC)CCCC(C)Nc1c2ccc(Cl)cc2nc2ccc(OC)cc12 (stereo unspecified)
- maximum recommended daily dose (mmol/kg-bw/day) (TherapeuticCategory: antithelmintic, antimalarial): 0.0125

Compound: N[C@@H]1[C@@H](O)[C@H](O)[C@@H](CO)O[C@H]1O
- maximum recommended daily dose (mmol/kg-bw/day) (TherapeuticCategory: antiarthritic): 0.558

Compound: Cc1nc(N/C(N)=N/S(=O)(=O)c2ccc(N)cc2)oc1C
- maximum recommended daily dose (mmol/kg-bw/day) [2]: 0.129

Compound: CNCCc1ccc(OC(=O)C(C)C)c(OC(=O)C(C)C)c1
- maximum recommended daily dose (mmol/kg-bw/day) (TherapeuticCategory: cardiotonic): 0.0325
